We go through ten compounds from patent US10759796B2, “CXCR4 inhibitors and uses thereof” (X4 Pharmaceuticals, Inc., priority 2016, dated 2020).

Where two headings read alike, the source gives them in different places.

As a reminder, the IC50 is the concentration at which inhibition is half-maximal. By Papp A→B is commonly meant how fast a substance crosses the layer from the apical side. One may read the Papp B→A as the apparent permeability from the basolateral to the apical side of a cell layer. For orientation: efflux ratio means a quotient of directional permeabilities that is used to spot active efflux. One may read the clearance as a measure of how efficiently the substance is removed, as volume per time. Low readings indicate a low capacity for elimination, high ones a high capacity for elimination.

The target in data set [1] is CXCR-4 transfected U87 cell line (U87.CXCR4) (Homo sapiens (Human), UniProt P61073). Kind of data set: Intracellular CXCL-12-induced calcium mobilization assay (FLIPR). As to conditions: U87.CXCR4 cells, CXCL-12 25-50 ng/mL; read-out: IC50 CXCL-12 Ca2+ flux U87.CXCR4+. It counts as cell-based. The gist of the method: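 U87.CXCR4 cells were seeded at 20,000 per well, cultured 12 hours, then loaded with 4 μM Fluo-2 AM for 45 min at 37° C. in HBSS with 20 mM HEPES and 0.2% BSA, pH 7.4. Calcium flux triggered by CXCL-12 (25-50 ng/mL) was tracked over time by FLIPR fluorescence at 37° C.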
Sequence of CXCR-4 transfected U87 cell line (U87.CXCR4) (P61073 whole entry): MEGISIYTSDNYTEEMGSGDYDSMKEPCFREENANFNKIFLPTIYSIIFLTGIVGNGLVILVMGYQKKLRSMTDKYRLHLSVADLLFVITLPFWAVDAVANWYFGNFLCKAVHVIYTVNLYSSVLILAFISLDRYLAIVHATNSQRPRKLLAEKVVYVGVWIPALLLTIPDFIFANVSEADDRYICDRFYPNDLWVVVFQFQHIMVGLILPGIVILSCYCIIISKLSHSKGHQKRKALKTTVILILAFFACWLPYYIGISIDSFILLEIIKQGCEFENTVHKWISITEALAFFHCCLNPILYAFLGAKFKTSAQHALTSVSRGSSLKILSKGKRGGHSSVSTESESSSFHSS
For orientation: A change in cytosolic calcium serves as a functional read-out for many receptors and channels.

A short description of another data set: in vitro. Conditions: human, Caco-2, pH 7.4. The gist of the method:
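Compounds at 10 μM in HBSS pH 7.4 (0.1–0.3% DMSO) were dosed on Caco-2 monolayers, apical-to-basolateral and basolateral-to-apical, for 90 min at 37 °C, in duplicate. Monolayer integrity was checked by TEER and lucifer yellow flux, read by fluorescence at 485/535 nm. Compound was quantified by LC-MS/MS and Papp calculated.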

The nature of data set [2]: Mouse brain uptake assay (pharmacokinetics and brain penetration after IV administration), 0-1 h, 3 time points. As to conditions: male; for Kp uu: CD1, brain and plasma, read-out: Kp, uu (unbound brain/unbound plasma drug concentration ratio); for Kp uu / clearance / half-life: Mouse, 0-1 h; for Kp uu / clearance / half-life / AUC(0-t): 3 mg/kg IV; for Kp: CD1, mouse, brain and plasma, iv, 3 mg/kg, read-out: Kp (brain/plasma drug concentration ratio); for clearance / half-life: CD1, plasma, 3 time points; for half-life: read-out: t½ (converted); for AUC(0-t): CD1, time zero to 1 hr. It counts as in vivo, Male CD1 Mice. On the procedure:
Example 29: Pharmacokinetics and Brain Penetration Experiment to Determine Brain and Plasma Concentrations of Compounds After IV Administration to Male CD1 Mice or Male SD Rat
The study design (9 animals) consisted of administrating the drug (IV: 3 mg/kg (5 mL/kg) via tail vein injection) and collecting samples at terminal bleeding for plasma and brain at 0.083, 0.5 and 1 h. The blood collection was performed as follows: the animal was restrained manually and approximately 150 μL blood/time point was collected into a dipotassium EDTA tube via retro orbital puncture under anesthesia with isoflurane. The blood sample was put on ice and centrifuged to obtain a plasma sample (2000 g, 5 min under 4° C.) within 15 minutes. The brain collection was performed as follows: a mid-line incision was made in the animal's scalp and the skin was retracted. Using small bone cutters and rongeurs, the skull overlying the brain was removed. The brain was removed using a spatula and the brain rinsed with cold saline. The brain was placed in screw-top tubes, and the tubes were stored at −70° C. until analysis. The IV dosing solution was prepared in 50 mM citrate buffer (pH 4.0) at 0.6 mg/mL.
Plasma Sample Preparation:
An aliquot of 30 μL sample was added to 150 μL MeCN containing 50 ng/mL IS (Dexamethasone). The mixture was vortexed for 5 min and centrifuged at 14,000 rpm for 5 min. An aliquot of 5 μL supernatant was injected for LC-MS/MS analysis.
Brain Sample Preparation:
An aliquot of 30 μL brain homogenate (brain:PBS=1:3, w/v) sample was added to 150 μL IS in ACN (Dexamethasone, 50 ng/mL). The mixture was vortexed for 5 min and centrifuged at 14,000 rpm for 5 min. An aliquot of 5 μL supernatant was injected for LC-MS/MS analysis.
The sample analysis was performed on LCMS/MS-003 (API4000, triple quadruple) under the following conditions: positive ion, ESI, MRM detection using dexamethasone as internal standard. HPLC conditions: mobile phase A: H2O (0.025% formic acid (FA) with 1 mM NH4OAc); mobile phase B: MeOH (0.025% FA with 1 mM NH4OAc) on Waters X-Bridge C18 (2.1×50 mm, 2.5 μm) column at 60° C.

Data set [3] can be described thus: Fraction of drug unbound to plasma proteins, mouse. As to conditions: read-out: Fu (p) %. The data set is classed as in vitro ADME.
Setting [4] is: Mouse brain, read-out: AUClast (b).
Where [5] appears, read: Mouse plasma, read-out: AUClast (p).
The mark [6] stands for this setting: Mouse plasma proteins (Table 9).

Consider `CN1CCN(c2cccc3nc([C@H]4CCC[C@@H](c5ncccc5Cl)N4)cn23)CC1` (racemic) [Compound I-149], for which the IC50 in data set [1] is 0.01 to 100 nM. Besides, in “in vitro”, the apical-to-basolateral permeability (Papp A→B) at 90 min, 10 μM was 10 to 30 ×10⁻⁶ cm/s; the basolateral-to-apical permeability (Papp B→A) at 90 min, 10 μM was 10 to 30 ×10⁻⁶ cm/s; the efflux ratio at 90 min, 10 μM fell in the range of 0.1 to 10. In addition, in data set [2], the Kp uu is 0.38, the Kp stood at 1.45, the clearance was 207 mL/min/kg and the half-life is 22 min. In addition, the AUC(0-t) in data set [2] (setting [4]) stood at 295 ng·h/mL. Also, the AUC(0-t) in data set [2] (setting [5]) was 203 ng·h/mL. Also, in data set [3] (setting [6]), the fraction unbound is 0.099.

Consider `CN1CCN(c2cccc3nc([C@H]4CCC[C@@H](c5ncccc5Cl)N4)cn23)CC1` (single isomer, unassigned) [Compound I-188], for which the IC50 in data set [1] was in the range of 0.01 to 100 nM. For the same compound, in “in vitro”, the apparent permeability from apical to basolateral (Papp A→B) at 90 min, 10 μM fell in the range of 10 to 30 ×10⁻⁶ cm/s; the Papp B→A at 90 min, 10 μM was 10 to 30 ×10⁻⁶ cm/s; the efflux ratio at 90 min, 10 μM fell in the range of 0.1 to 10. Besides, in data set [3] (Mouse plasma proteins (Table 12)), the fraction unbound turned out to be 0.143.

Turning to `CN1CCN(c2cccc3nc([C@@H]4CCC[C@H](c5ncccc5Cl)N4)cn23)CC1` (single isomer, unassigned) [Compound I-189], the IC50 in data set [1] was in the range of 100 to 1000 nM. In “in vitro”, the Papp A→B at 90 min, 10 μM was 10 to 30 ×10⁻⁶ cm/s; the basolateral-to-apical permeability (Papp B→A) at 90 min, 10 μM fell in the range of 10 to 30 ×10⁻⁶ cm/s; the efflux ratio at 90 min, 10 μM was in the range of 0.1 to 10.

For the compound `Cc1cccnc1[C@@H]1CCC[C@H](c2cn3c(-c4cccnc4)cccc3n2)N1C` [Compound I-6], the IC50 in data set [1] fell in the range of 0.01 to 100 nM. In “in vitro”, the Papp A→B at 90 min, 10 μM was in the range of 10 to 30 ×10⁻⁶ cm/s; the apparent permeability from basolateral to apical (Papp B→A) at 90 min, 10 μM fell in the range of 10 to 30 ×10⁻⁶ cm/s; the efflux ratio at 90 min, 10 μM fell in the range of 0.1 to 10. In data set [2], the Kp came out at 0.61, the clearance was 48.3 mL/min/kg and the half-life was 216 min. Besides, the AUC(0-t) in data set [2] (setting [4]) was found to be 326 ng·h/mL. The AUC(0-t) in data set [2] (setting [5]) was found to be 531 ng·h/mL.

With `Cc1cccnc1[C@@H]1CCC[C@H](c2nc3cccc(N4CCN(C)CC4)n3c2Cl)N1C` [Compound I-18], the 50% inhibitory concentration (IC50) in data set [1] is 0.01 to 100 nM. Moreover, in the data set “in vitro”, the Papp A→B at 90 min, 10 μM was in the range of 0.1 to 10 ×10⁻⁶ cm/s; the Papp B→A at 90 min, 10 μM is 0.1 to 10 ×10⁻⁶ cm/s; the efflux ratio at 90 min, 10 μM is 0.1 to 10. Moreover, in data set [2], the Kp uu turned out to be 0.43, the Kp was 11.8, the clearance was 245 mL/min/kg and the half-life is 20.6 min. Besides, the AUC(0-t) in data set [2] (setting [4]) came out at 2060 ng·h/mL. In addition, in data set [2] (setting [5]), the AUC(0-t) is 175 ng·h/mL. The fraction unbound in data set [3] (setting [6]) is 0.054.

Regarding `CCN1CCN(c2cccc3nc([C@H]4CCC[C@@H](c5ncccc5C)N4C)c(Br)n23)CC1` [Compound I-19], in data set [1], the half-maximal inhibitory concentration (IC50) was 0.01 to 100 nM. Further, in “in vitro”, the Papp A→B at 90 min, 10 μM lay in the range of 0.1 to 10 ×10⁻⁶ cm/s; the Papp B→A at 90 min, 10 μM was 0.1 to 10 ×10⁻⁶ cm/s; the efflux ratio at 90 min, 10 μM is 0.1 to 10. For the same compound, in data set [2], the Kp uu came out at 0.32, the Kp worked out at 8.84, the clearance is 223 mL/min/kg and the half-life is 21.8 min. Moreover, in data set [2] (setting [4]), the AUC(0-t) is 1690 ng·h/mL. Besides, the AUC(0-t) in data set [2] (setting [5]) stood at 191 ng·h/mL. Also, in data set [3] (setting [6]), the fraction unbound came out at 0.028.

For the compound `Cc1cccnc1[C@@H]1CCC[C@H](c2nc3cccc(N4CCN(C(C)C)CC4)n3c2Br)N1C` [Compound I-20], in data set [1], the IC50 was in the range of 100 to 1000 nM. Moreover, in the data set “in vitro”, the Papp A→B at 90 min, 10 μM is 0.1 to 10 ×10⁻⁶ cm/s; the Papp B→A at 90 min, 10 μM is 0.1 to 10 ×10⁻⁶ cm/s; the efflux ratio at 90 min, 10 μM fell in the range of 0.1 to 10. Further, in data set [2], the Kp uu worked out at 0.3, the Kp came to 6.29, the clearance was 173 mL/min/kg and the half-life is 22.4 min. Also, the AUC(0-t) in data set [2] (setting [4]) was 1520 ng·h/mL. In addition, the AUC(0-t) in data set [2] (setting [5]) amounted to 241 ng·h/mL. In addition, the fraction unbound in data set [3] (setting [6]) stood at 0.021.

With `Cc1cccnc1[C@@H]1CCC[C@H](c2nc3cccc(N4CCC(N(C)C)CC4)n3c2Cl)N1C` [Compound I-114], in data set [1], the 50% inhibitory concentration (IC50) lay within 0.01 to 100 nM. Also, in “in vitro”, the Papp A→B at 90 min, 10 μM fell in the range of 0.1 to 10 ×10⁻⁶ cm/s; the Papp B→A at 90 min, 10 μM lay within 0.1 to 10 ×10⁻⁶ cm/s; the efflux ratio at 90 min, 10 μM is 0.1 to 10. Further, in data set [2], the Kp uu came to 0.08, the Kp came out at 0.76, the clearance was 117 mL/min/kg and the half-life was 43.2 min. Moreover, the AUC(0-t) in data set [2] (setting [4]) amounted to 205 ng·h/mL. In addition, in data set [2] (setting [5]), the AUC(0-t) stood at 267 ng·h/mL. The fraction unbound in data set [3] (setting [6]) came out at 0.028.

Consider `Cc1cccnc1[C@@H]1CCC[C@H](c2nc3cccc(N4CCN(C)CC4)n3c2Cl)N1` [Compound I-146], for which the IC50 in data set [1] lay within 100 to 1000 nM. In “in vitro”, the Papp A→B at 90 min, 10 μM was in the range of 10 to 30 ×10⁻⁶ cm/s; the basolateral-to-apical permeability (Papp B→A) at 90 min, 10 μM is 10 to 30 ×10⁻⁶ cm/s; the efflux ratio at 90 min, 10 μM was in the range of 0.1 to 10. Moreover, in data set [2], the Kp uu came out at 0.21, the Kp was 1.86, the clearance was 7.22 mL/min/kg and the half-life is 361 min. Besides, the AUC(0-t) in data set [2] (setting [4]) is 1640 ng·h/mL. Besides, in data set [2] (setting [5]), the AUC(0-t) was found to be 884 ng·h/mL. In addition, the fraction unbound in data set [3] (setting [6]) was determined as 0.053.

`Cc1cccnc1[C@@H]1CCC[C@H](c2cn3c(N4CCN(C)CC4)cccc3n2)N1` [Compound I-187]: in data set [1], the IC50 fell in the range of 0.01 to 100 nM. In “in vitro”, the apical-to-basolateral permeability (Papp A→B) at 90 min, 10 μM fell in the range of 0.1 to 10 ×10⁻⁶ cm/s; the apparent permeability from basolateral to apical (Papp B→A) at 90 min, 10 μM lay in the range of 10 to 30 ×10⁻⁶ cm/s; the efflux ratio at 90 min, 10 μM is 0.1 to 10. Besides, in data set [2], the Kp uu turned out to be 0.05, the Kp came out at 0.22, the clearance was 127 mL/min/kg and the half-life is 21.2 min. In data set [2] (setting [4]), the AUC(0-t) came out at 76.5 ng·h/mL. In addition, the AUC(0-t) in data set [2] (setting [5]) is 335 ng·h/mL. Moreover, the fraction unbound in data set [3] (setting [6]) came out at 0.249.
